From the NIST ThermoML archive (doi:10.1016/j.jct.2007.11.010)
Numbers after ± are expanded uncertainties.

Conditions: 101.33 kPa, Liquid

mass density (293.15 K) [kg/m3] | mass density (298.15 K) [kg/m3] | mass density (303.15 K) [kg/m3] | mass density (313.15 K) [kg/m3] | mass density (323.15 K) [kg/m3] | Compound
805.56 ± 1.3 | 802.43 ± 1.4 | 797.76 ± 1.4 | 790.11 ± 1.4 | 784.92 ± 1.4 | CCC(C)O (stereo not given) [butan-2-ol]
785.18 ± 0.5 | 781.31 ± 0.5 | 776.66 ± 0.51 | 767.83 ± 0.52 | 758.71 ± 0.54 | CC(C)O [propan-2-ol]

Further lines, the compound ahead of its results:

Compound | mass density (293.15 K) [kg/m3] | mass density (298.15 K) [kg/m3] | mass density (303.15 K) [kg/m3] | mass density (313.15 K) [kg/m3] | mass density (323.15 K) [kg/m3]
OCCN1CCOCC1 [4-morpholineethanol] | 1076.58 ± 0.97 | 1071.3 ± 0.94 | 1066.51 ± 0.92 | 1059.19 ± 0.88 | 1052.64 ± 0.84
CCCCO [butan-1-ol] | 809.52 ± 0.46 | 805.88 ± 0.47 | 801.99 ± 0.47 | 794.34 ± 0.48 | 786.67 ± 0.5
CCO [ethanol] | 788.33 ± 0.49 | 784.97 ± 0.5 | 780.72 ± 0.5 | 772.61 ± 0.52 | 764.14 ± 0.53
CCCO [propan-1-ol] | 803.56 ± 0.47 | 799.71 ± 0.48 | 795.58 ± 0.48 | 787.34 ± 0.49 | 778.97 ± 0.51
